Reference: patent publication US11382921B2, “Use of compounds in preparation of a medicament for treatment of hemorrhagic stroke” (priority 2017, dated 2022)

Experiments:
[1] = system: C57B mouse model of cerebral hemorrhage; assay: Neurobehavioral scoring (circle test, adhesive paper test, modified Garcia score) in collagenase-induced intracerebral hemorrhage model; assay type: in vivo; conditions: C57B mice, 60 mg/kg i.p. 1 h after modeling
Experimental: FIG. 2. […] A. Circle test; Adhesive paper test; B. Time duration for contacting adhesive paper; C. Time consumption to tear off adhesive paper; *p<0.05, ***p<0.001, n=12˜23 animals/group. con: normal; sham: sham-operated group; ICH: cerebral hemorrhage model; vehicle: solvent.
FIG. 3. […] Modified Garcia score (A-D) is used to evaluate somatosensory and motor function at 24 hours after cerebral hemorrhage in C57B mice: A. Nose hair contact test; B. Limb symmetry test; C. Forelimb walking test, D. Overall nerve function Score; n=12˜23 animals/group, *p<0.05, **p<0.01, ***p<0.001. con: normal; sham: sham-operated group; ICH: cerebral hemorrhage model; vehicle: solvent.
(§1) 112 clean grade health C57 male mice (8˜10 week, 20-22 g) were purchased from Beijing Vital River Laboratory Animal Technology Co. Ltd. Feeding conditions: 22° C.˜26° C., humidity 50%˜60%. The mice were grouped, fed with standard feed and purified water, and subjected to adaptive feeding for 1 week.
(§2) Establishment of Intracerebral hemorrhage model: After weighing body weight of mice, anesthesia was induced by 5% enflurane, and maintained by 2% enflurane mixed with 70% N2O and 30% O2. Mice were fixed on a stereotactic apparatus in the prone position and disinfected topically. The skin of the animals was incised to expose the skull for drilling. 0.3 μl of 0.35UVII collagenase was slowly injected with a micro sampler. The needle was kept for 5 min then slowly pulled out for 5 min, and the skull drilling was covered by bone glue. Animals were sutured, and subjected to routine disinfection. In the sham operation group, the needle was inserted in the same way, but without injection. The solvent or Triol was administered by intraperitoneal injection at 60 mg/kg 1 h after modeling.
C57 mice were divided into 5 groups using random number method, namely normal control group (n=12), sham operation group (n=12), cerebral hemorrhage group (n=26), cerebral hemorrhage+solvent intraperitoneal injection 1 h after modeling group (n=26), and cerebral hemorrhage+Triol intraperitoneal injection 1 h after modeling group (n=26).
The neurological function was measured 24 hours after the cerebral hemorrhage model was established.

[2] = system: C57B mouse model of cerebral hemorrhage; assay: Determination of intracerebral hemorrhage (hemorrhage area, brain hemoglobin content) in collagenase-induced intracerebral hemorrhage model; assay type: in vivo; conditions: C57B mice
Experimental: as §1
as §2, with “modeling. […]” for “modeling.”
chloral hydrated peritoneal was injected intraperitoneally for anesthesia at 24 hours after modeling. […] The hemoglobin content in the brain was measured with a hemoglobin detection kit.

C[C@@]12CCCC1C1C[C@@H](O)[C@@]3(O)C[C@@H](O)CC[C@]3(C)C1CC2 (stereo partly drawn) [Triol, 5α-androst-3β,5,6β-triol]
adhesive paper test: time consumption to remove adhesive paper ([1]; 24 h, p<0.001 (FIG. 2C)): significantly reduced | modified Garcia score: beard touch avoidance (nose hair contact test) ([1]; 24 h, p<0.001 (FIG. 3A)): significantly restored | neurological function scores (overall, modified Garcia) ([1]; 24 h, p<0.001 (FIG. 3D)): significantly improved | modified Garcia score: symmetry of the limbs' movement ([1]; 24 h, p<0.01 (FIG. 3B)): significantly improved | adhesive paper test: time duration for contacting adhesive paper ([1]; 24 h, p<0.05 (FIG. 2B)): significantly reduced | modified Garcia score: forelimb walking ([1]; 24 h, p<0.05 (FIG. 3C)): significantly improved | circle test: time taken to go out of the center of the circle to any point of the circle edge ([1]; 24 h after cerebral hemorrhage (FIG. 2A)): has a tendency to decrease | hemoglobin content of the hemorrhagic hemisphere (amount of hemorrhage) ([2]; 60 mg/kg i.p. 1 h after modeling, 24 h, vs cerebral hemorrhage model group, p<0.01 (FIG. 1B)): decreased significantly | hemorrhage area (volume) of the hemisphere brain with collagenase injection ([2]; Triol 60 mg/kg intraperitoneal 1 h after modeling, 24 h later (FIG. 1A)): significantly reduced
